# Results taken from patent US9642859B2, “Use of capsazepine and analogs thereof to treat cancer” (THE BOARD OF REGENTS OF THE UNIVERSITY OF TEXAS SYSTEM, priority 2012, dated 2017).
# Read-outs that look alike come from different tables or passages of the source.
# How the values were obtained:
# TRPA1 [1] = target: T1, TRPA1 (Homo sapiens, UniProt O75762); settings: cited from earlier work
# Target sequence in this assay (O75762 whole entry, species assumed): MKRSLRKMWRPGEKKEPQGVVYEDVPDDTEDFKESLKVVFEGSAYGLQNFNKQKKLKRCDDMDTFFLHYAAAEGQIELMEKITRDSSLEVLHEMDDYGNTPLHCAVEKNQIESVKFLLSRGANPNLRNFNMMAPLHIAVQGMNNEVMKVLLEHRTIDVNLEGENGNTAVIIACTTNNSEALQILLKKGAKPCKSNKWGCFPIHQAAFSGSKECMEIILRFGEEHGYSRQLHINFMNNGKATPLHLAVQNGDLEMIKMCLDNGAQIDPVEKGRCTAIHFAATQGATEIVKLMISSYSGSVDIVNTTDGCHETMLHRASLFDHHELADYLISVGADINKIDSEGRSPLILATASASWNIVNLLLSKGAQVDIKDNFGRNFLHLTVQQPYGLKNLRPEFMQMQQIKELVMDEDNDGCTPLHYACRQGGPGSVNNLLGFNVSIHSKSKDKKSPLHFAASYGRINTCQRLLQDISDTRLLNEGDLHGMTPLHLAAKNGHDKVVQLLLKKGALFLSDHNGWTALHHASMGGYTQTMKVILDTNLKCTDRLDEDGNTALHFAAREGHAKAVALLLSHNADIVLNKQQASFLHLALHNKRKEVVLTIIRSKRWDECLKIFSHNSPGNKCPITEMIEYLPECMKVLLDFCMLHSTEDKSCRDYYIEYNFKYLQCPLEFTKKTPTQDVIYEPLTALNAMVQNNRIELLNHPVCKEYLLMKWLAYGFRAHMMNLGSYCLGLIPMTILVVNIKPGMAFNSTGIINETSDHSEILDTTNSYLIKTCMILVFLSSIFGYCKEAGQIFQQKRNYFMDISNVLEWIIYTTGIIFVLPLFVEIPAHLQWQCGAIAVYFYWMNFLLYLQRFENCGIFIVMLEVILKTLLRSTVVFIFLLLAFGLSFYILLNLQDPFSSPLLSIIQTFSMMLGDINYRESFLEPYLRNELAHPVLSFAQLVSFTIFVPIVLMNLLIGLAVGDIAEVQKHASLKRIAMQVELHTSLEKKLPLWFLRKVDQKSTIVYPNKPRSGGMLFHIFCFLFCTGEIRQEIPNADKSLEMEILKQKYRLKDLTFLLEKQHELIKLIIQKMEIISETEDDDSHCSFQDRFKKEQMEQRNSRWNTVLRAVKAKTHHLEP
# [2] = tested on: CFA-induced thermal hyperalgesia; settings: cited from earlier work
# TRPM8 [3] = target: T2, TRPM8 (Homo sapiens, UniProt Q7Z2W7); settings: cited from earlier work
# Target sequence in this assay (Q7Z2W7 whole entry, species assumed): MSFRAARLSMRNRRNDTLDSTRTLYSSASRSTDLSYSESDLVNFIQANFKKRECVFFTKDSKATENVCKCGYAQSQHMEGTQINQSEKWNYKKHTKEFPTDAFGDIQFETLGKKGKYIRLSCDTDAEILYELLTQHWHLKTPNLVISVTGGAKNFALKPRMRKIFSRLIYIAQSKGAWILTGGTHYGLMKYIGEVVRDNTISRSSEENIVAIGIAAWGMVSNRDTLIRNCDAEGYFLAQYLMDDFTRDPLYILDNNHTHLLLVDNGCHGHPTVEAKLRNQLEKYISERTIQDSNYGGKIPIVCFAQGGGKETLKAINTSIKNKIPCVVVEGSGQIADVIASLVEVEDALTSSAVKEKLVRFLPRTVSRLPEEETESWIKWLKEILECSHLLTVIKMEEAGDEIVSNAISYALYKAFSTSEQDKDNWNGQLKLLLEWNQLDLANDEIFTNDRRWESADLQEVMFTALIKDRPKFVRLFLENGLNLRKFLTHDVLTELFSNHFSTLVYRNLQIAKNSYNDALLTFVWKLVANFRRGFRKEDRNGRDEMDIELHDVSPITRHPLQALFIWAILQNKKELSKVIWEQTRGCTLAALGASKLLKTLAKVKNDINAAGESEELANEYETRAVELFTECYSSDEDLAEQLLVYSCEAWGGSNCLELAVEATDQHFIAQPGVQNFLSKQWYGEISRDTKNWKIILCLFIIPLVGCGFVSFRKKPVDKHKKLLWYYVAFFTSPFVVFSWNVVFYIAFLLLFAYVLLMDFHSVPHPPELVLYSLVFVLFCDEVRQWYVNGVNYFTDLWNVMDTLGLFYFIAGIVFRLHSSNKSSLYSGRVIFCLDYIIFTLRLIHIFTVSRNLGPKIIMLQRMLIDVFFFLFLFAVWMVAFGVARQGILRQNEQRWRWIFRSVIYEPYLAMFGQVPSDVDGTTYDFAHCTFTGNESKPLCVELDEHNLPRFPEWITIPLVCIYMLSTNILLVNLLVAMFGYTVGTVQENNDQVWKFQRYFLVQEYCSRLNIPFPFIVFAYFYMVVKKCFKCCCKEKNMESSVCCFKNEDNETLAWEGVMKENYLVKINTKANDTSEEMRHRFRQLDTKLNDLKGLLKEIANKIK
# TRPV3 = TRPV3 (Homo sapiens, UniProt Q8NET8); settings: read-out: hIC50 at TRPV3; cited from earlier work
# TRPV4 = TRPV4 (Homo sapiens, UniProt Q9HBA0); settings: read-out: hIC50 at TRPV4; cited from earlier work
# TRPA1 [4] = target: T1, TRPA1; settings: read-out: hIC50 at TRPA1; cited from earlier work
# Target sequence in this assay (O75762 whole entry): as the sequence (O75762 whole entry, species assumed) above
# TRPM8 [5] = target: T2, TRPM8; settings: read-out: hIC50 at TRPM8; cited from earlier work
# Target sequence in this assay (Q7Z2W7 whole entry): as the sequence (Q7Z2W7 whole entry, species assumed) above
# [6] = tested on: CFA-induced mechanical hyperalgesia; settings: cited from earlier work
# [7] = tested on: partial nerve-ligation model; settings: cited from earlier work
# OKF6 cells = assay: Cell viability assay of immortalized non-malignant oral keratinocytes; format: cell-based; settings: CAP 150 μM, 24 hours
# Source text: FIG. 1D-2. […] Treatment with high concentrations of CAP induces death of normal, non-malignant OKF6 cells. The effect of which was reversed by the pre-treatment with CPZ.
# [8] = tested on: OSCC cell lines (HSC3, SCC4, and SCC25)
# Experimental: Cell viability assays reported as % of vehicle control (n=3). […] VEH=delivery vehicle control without CAP or CPZ. *p<0.05, ***p<0.001.
# FIG. 1H-1: Cell viability assays of OSCC cell lines treated with 30 μM CPZ alone or in combination with 10 mM N-Acetyl-L-Cysteine (NAC) for 24 h (n=4); ***p<0.001.
# Human OSCC Cell Lines. The human OSCC cell lines MDA231, PS3, SCC4 and SCC25 were obtained from ATCC (American Type Culture Collection, Rockville, Md.). The HSC3 cell line was obtained from the Japanese Cell Resource Bank (Osaka, Japan). […] Cells were maintained in DMEM (GIBCO, Carlsbad, Calif.) supplemented with 10% FBS at 37° C. in 5% CO2. Both cell lines were derived from primary OSCC tumors from the tongues of male patients in their fifth generation of life. Data regarding pertinent medical history, treatment, outcome of care and recurrence were not available.
# Statistical Analysis. Statistical analyses were performed using GraphPad Prism4 (San Diego, Calif.). Experiments were performed in triplicate and results are represented as means+SD except when indicated. […] Cytotoxicity assays of cell viability were analyzed by one-way ANOVA and Bonferroni's post-hoc test (n=3).
# [9] = tested on: OSCC cell lines (HSC3, SCC4, and SCC25); assay: Calcium imaging of OSCC cell lines; format: cell-based, human
# Experimental: FIGS. 1J-1 to 1J-2. FIGS. 1J-1(a) to (c): […] FIGS. 1J-2(a) to (c): […] Arrow indicates time point when treatment was added. […] This was due to the toxic effects of this high capsaicin concentration which permeablized the cell membrane allowing calcium to flow freely […] the cell. This was not reversed by capsazepine. […] These finding confirm that activation of TRPV1 is not the mechanism by which cell death is induced using capsazepine.
# HSC3 cells = assay: Cell viability assay of HSC3 cells, dose response curve; format: cell-based; settings: Homo sapiens, HSC-3, HSC3 cells, FIG. 1K
# Source text: FIG. 1K. Cell viability assay of HSC3 cells treated with increasing concentrations of curcumin; […]
# OSCC cell lines = assay: ROS assays by flow cytometry (DCF-DA); format: cell-based, human; settings: 1 h
# Experimental: FIGS. 1I-1 to 1I-3. Reactive oxygen species (ROS) assays. The level of ROS in OSCC cell lines was examined by flow cytometry using 2,7-dichlorodihydrofluorescein diacetate (DCFH-DA; Sigma). Approximately 3×10^5 cells were plated in 12-well plates. To detect ROS, cells were incubated for 30 min at 37° C. with DCF-DA, washed and then treated for 1 h with 30 μM capsazepine (grey, thick line), 150 μM capsaicin (grey, thin line), 30 μM capsazepine+150 μM capsaicin (black line), or vehicle control (dotted line). The cells were harvested, washed twice, and analyzed by flow cytometry.
# FIGS. 1I-4(a)-(b) to 1I-6(a)-(b). Induction of ROS in OSCC cell lines. (a). ROS induction in OSCC cell lines following 1 h treatment with 30 μM CPZ (black line) compared to vehicle control. (b). ROS induction in OSCC cell lines following 1 h treatment with 30 μM CPZ is reversed by NAC co-treatment (black line) as indicated in the shift in their peaks to the left.
# ROS levels in OSCC cell lines were examined by flow cytometry using 2,7-dichlorodihydrofluorescein diacetate (DCF-DA; Sigma-Aldrich, St. Louis, Mo.). Cells (3×10^5) were plated in 12-well plates and incubated for 30 min with DCF-DA at 37° C. then treated with 30 μM capsazepine using phenol free media with and without 10 mM NAC. Treated cells were incubated for 1 h at 37° C., harvested, washed twice, and analyzed by FACS.
# [10] = tested on: immortalized human bronchiolar epithelial cell line transformed with a TRPV1 insert; settings: TRPV1-overexpressing cultured cells, treatment with CAP; cited from earlier work
# TRPV1 [11] = target: T3, TRPV1 (Homo sapiens, UniProt Q8NER1); settings: read-out: hIC50 (45Ca2+ uptake); cited from earlier work
# Target sequence in this assay (Q8NER1 whole entry): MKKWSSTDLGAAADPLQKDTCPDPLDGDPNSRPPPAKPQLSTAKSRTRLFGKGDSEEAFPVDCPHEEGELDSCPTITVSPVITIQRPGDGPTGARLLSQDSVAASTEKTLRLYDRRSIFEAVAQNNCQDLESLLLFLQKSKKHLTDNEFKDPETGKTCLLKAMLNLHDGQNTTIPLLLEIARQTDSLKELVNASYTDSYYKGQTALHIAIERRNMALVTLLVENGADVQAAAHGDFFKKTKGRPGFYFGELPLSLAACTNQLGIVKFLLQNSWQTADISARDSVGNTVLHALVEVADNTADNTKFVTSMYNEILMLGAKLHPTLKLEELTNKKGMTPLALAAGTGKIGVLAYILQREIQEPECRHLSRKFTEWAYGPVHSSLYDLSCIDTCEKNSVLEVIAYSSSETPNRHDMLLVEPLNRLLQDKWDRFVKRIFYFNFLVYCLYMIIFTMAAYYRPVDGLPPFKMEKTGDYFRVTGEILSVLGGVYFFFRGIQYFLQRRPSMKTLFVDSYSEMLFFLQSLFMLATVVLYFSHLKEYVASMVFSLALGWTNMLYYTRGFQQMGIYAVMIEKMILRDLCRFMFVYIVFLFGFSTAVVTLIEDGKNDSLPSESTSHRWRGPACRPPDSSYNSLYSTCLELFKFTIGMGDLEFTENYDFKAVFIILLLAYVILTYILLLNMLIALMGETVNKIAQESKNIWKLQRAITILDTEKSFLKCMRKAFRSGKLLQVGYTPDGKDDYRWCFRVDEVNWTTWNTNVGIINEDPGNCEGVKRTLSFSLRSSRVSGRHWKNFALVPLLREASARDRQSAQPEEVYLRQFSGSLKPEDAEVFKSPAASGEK
# bone-cancer pain = settings: in vivo model of bone-cancer pain; cited from earlier work
# [12] = rats, 30 mg per kg, orally; cited from earlier work
# [13] = tested on: MDA231 breast cancer cells; assay: Cell viability assay of MDA231 cells with and without NAC; format: cell-based, human; settings: 10 mM NAC
# [14] = tested on: PC3 prostate cancer cells; assay: Cell viability assay of PC3 cells with and without NAC; format: cell-based, human; settings: 10 mM NAC, prostate cancer cells
# [15] = tested on: carrageenan-induced thermal hyperalgesia; settings: cited from earlier work
# [16] = tested on: TRPV4 and other TRP channels; settings: cited from earlier work
# TRPV1 [17] = target: T3, TRPV1; settings: cited from earlier work
# Target sequence in this assay (Q8NER1 whole entry, species assumed): as the sequence (Q8NER1 whole entry) above
# TRPV1 [18] = target: T3, TRPV1; settings: read-out: hKi (FLIPR); cited from earlier work
# Target sequence in this assay (Q8NER1 whole entry): as above
# [19] = tested on: capsaicin-evoked flare and acute heat-evoked pain; settings: Phase I; cited from earlier work
# [20] = cited from earlier work
# Sequence of TRPV4 (Q9HBA0 whole entry): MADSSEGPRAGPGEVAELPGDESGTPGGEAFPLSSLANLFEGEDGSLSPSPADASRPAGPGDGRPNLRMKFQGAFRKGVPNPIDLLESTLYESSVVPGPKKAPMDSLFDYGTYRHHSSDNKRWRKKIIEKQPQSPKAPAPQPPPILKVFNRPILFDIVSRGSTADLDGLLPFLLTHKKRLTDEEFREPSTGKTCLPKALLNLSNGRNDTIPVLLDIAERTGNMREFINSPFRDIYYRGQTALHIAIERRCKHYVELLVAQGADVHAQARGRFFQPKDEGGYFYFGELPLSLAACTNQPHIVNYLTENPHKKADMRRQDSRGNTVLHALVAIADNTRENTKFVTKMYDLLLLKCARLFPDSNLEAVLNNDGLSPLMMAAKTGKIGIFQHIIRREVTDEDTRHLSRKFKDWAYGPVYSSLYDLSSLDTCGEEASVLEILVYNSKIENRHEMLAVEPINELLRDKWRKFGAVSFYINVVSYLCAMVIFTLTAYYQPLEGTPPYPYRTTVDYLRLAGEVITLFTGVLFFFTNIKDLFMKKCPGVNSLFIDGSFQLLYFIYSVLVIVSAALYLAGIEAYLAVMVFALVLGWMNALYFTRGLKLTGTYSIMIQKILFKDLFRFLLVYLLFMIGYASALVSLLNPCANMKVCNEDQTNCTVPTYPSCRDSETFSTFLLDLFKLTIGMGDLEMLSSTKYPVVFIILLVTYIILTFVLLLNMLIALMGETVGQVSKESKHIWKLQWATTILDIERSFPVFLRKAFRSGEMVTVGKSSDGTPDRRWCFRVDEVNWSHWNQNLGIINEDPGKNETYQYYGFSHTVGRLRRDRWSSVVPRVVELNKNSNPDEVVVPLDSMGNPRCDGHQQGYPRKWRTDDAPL
# Sequence of TRPV3 (Q8NET8 whole entry): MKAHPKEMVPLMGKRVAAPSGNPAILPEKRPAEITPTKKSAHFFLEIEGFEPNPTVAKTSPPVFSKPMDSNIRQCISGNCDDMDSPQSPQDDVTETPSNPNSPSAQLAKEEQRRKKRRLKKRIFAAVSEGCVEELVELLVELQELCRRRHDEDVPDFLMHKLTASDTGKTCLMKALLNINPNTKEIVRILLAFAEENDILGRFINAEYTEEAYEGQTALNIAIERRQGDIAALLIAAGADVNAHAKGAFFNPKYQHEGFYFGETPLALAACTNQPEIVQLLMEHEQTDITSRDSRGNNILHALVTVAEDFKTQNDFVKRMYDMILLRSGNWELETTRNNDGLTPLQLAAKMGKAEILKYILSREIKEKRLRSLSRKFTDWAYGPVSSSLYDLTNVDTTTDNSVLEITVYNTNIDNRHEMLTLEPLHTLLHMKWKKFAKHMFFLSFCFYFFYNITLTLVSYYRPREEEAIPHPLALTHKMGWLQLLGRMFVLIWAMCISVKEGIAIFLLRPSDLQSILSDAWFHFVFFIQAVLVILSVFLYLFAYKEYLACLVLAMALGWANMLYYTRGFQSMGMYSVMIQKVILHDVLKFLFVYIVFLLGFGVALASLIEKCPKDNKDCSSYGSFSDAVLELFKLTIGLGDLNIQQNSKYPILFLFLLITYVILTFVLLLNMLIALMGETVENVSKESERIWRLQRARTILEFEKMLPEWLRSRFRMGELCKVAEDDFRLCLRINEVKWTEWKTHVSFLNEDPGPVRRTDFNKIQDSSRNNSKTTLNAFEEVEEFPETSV
compound,measurement,setting,value
O=C(NCc1ccc(C(F)(F)F)cc1)Nc1cccc2cnccc12 [A-425619],IC50,TRPA1 [1],> 10 µM
same,"ED50, CFA-induced thermal hyperalgesia",[2]; in vivo,10 mg per kg
same,IC50,TRPM8 [3],8 µM
CC(C)(C)c1ccc(/C=C/C(=O)Nc2ccc3c(c2)OCCO3)cc1 [AMG-9810],IC50,TRPV3,> 4 µM
same,IC50,TRPV4,> 4 µM
same,IC50,TRPA1 [4],> 4 µM
same,IC50,TRPM8 [5],> 4 µM
same,CFA-induced thermal hyperalgesia,[2]; 30 mg per kg,Inhibits
same,CFA-induced mechanical hyperalgesia,[6]; 100 mg per kg,Inhibits
"CC(C)(C)c1ccc(NC(=O)N2CCN(c3ncccc3Cl)CC2)cc1 [BCTC, N-(4-tertiarybutylphenyl)-4-(3-chloropyridin-2-yl)tetrahydropyrazine-1(2H)-carboxamide]",tactile allodynia,[7],Reduces
same,thermal hyperalgesia,[7],Reduces
same,CFA-induced thermal hyperalgesia,"[2]; 3-30 mg per kg, orally",Inhibits
same,CFA-induced mechanical hyperalgesia,"[6]; 3-30 mg per kg, orally",Inhibits
same,IC50,TRPM8 [3],0.143 µM
"COc1cc(CNC(=O)CCCC/C=C/C(C)C)ccc1O [CAP, capsaicin]","cell viability of normal, non-malignant cells",OKF6 cells,induces death
same,cell viability / cytotoxic effects,"[8]; 30 μM, 24 hrs, HSC3, SCC4, SCC25",does not
same,cell viability,"[8]; 150 μM, HSC3, SCC4 and SCC25",significantly reduces cell viability
same,calcium influx,[9]; 20 μM capsaicin,fails to cause an influx of calcium
same,calcium flow,[9]; 150 μM capsaicin (cytotoxic level),calcium outflow occurred over a prolonged period of time
same,IC50,HSC3 cells,~150 µM
same,level of ROS,OSCC cell lines; 150 μM capsaicin,increase in ROS
same,apoptosis,[10],did result in apoptosis
Cc1nc2cc(C(C)C)c(-c3ccc(Cl)c(OCC4CC4)c3)cc2c(=O)[nH]1 [Compound 26],reversal of mechanical hyperalgesia,[7],57%
same,reversal of CFA-induced mechanical hyperalgesia,"[6]; 30 mg per kg, orally",60%
C[C@@H]1CN(c2ncc(C(O)CO)cc2Cl)CCN1c1nc2c(-c3cc(F)c(F)c(F)c3)cc(C(F)(F)F)cc2[nH]1 (stereo partly drawn) [Compound 46ad],IC50,TRPV1 [11],0.001 µM
same,reversal of CFA-induced thermal hyperalgesia,"[2]; 30 mg per kg, orally",significant reversal
O=C(Nc1ccc(C(F)(F)F)cn1)N1CCN(c2ncccc2C(F)(F)F)CC1 [JNJ-17203212],nocifensive behaviors,bone-cancer pain,Attenuates
same,increase in core body temperature,[12],~1 °C
"CC(=O)N[C@@H](CS)C(=O)O [NAC, N-Acetyl-L-Cysteine]",effect of NAC on the effects of CPZ,"[8]; 10 mM NAC, all OSCC cell lines tested",reverse significantly
same,ROS induction by 30 μM CPZ with NAC co-treatment,OSCC cell lines; 10 mM NAC,reversed
same,effect of NAC on the effects of CPZ,[13],reverse significantly
same,effect of NAC on the effects of CPZ,[14],reverse significantly
FC(F)(F)c1ccc(Nc2ncnc3cc(-c4ncccc4C(F)(F)F)ccc23)cc1 [Quinazoline analog],block of carrageenan-induced thermal hyperalgesia,[15]; at 3 mg per kg,80%
same,"MED, carrageenan-induced thermal hyperalgesia",[15]; minimum effective dose,0.1 mg per kg
COc1cccc(NC(=O)/C=C/c2ccc(Cl)cc2)c1 [SB-366791],selectivity versus TRPV4 and other TRP channels,[16],Selective
same,capsaicin and heat-mediated activation of TRPV1,TRPV1 [17],Inhibits
same,Ki,TRPV1 [18],0.018 µM
O=C(Nc1ccccc1Br)N[C@@H]1CCN(c2ccc(C(F)(F)F)cn2)C1 [SB-705498],acute heat-evoked pain on non-sensitized skin,[19],reduced
same,capsaicin-evoked flare,[19],reduced
COc1cc(/C=C/C(=O)CC(=O)/C=C/c2ccc(O)c(OC)c2)ccc1O [curcumin],IC50,HSC3 cells,90 µM
AMG 517,IC50,TRPV1 [11],0.0009 µM
same,body temperature increases,"[20]; doses of 2 mg, in one patient",~3 °C
same,hyperthermia,"[20]; seen at 0.3-3 mg/kg, oral administration",up to 1.5 °C
same,block of CFA-induced thermal hyperalgesia,[2]; at 10 mg per kg,~40%
same,"MED, CFA-induced thermal hyperalgesia",[2]; minimum effective dose,1 mg per kg
